Test results from the supplement of paper PMC4862054.

How the values were obtained:
Details in all cases: incubation time: 72 h
[1] = test system: HDQ-P1; assay: normalised viability (% of control), CellTiter-Blue; higher = more viable cells (about 100 = DMSO control)
Protocol: (§1)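 DSRT, CellTiter-Blue viability, 72 h incubation. Signal is normalised to DMSO and benzethonium chloride controls. Value is the normalised response at dose 6.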

[2] = test system: DU-4475; assay: as above
Protocol: as §1

[3] = test system: CAL-51; assay: as above
Protocol: as §1

[4] = test system: MDA-MB-453; assay: as above
Protocol: as §1

[5] = test system: CAL-148; assay: as above
Protocol: as §1

[6] = test system: CAL-85-1; assay: as above
Protocol: as §1

[7] = test system: HDQ-P1; assay: normalised response (% of control), CellTox Green; higher = less cell death (100 = DMSO, 0 = benzethonium chloride kill control)
How it was run: (§2)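 Plates were normalised with 0.1 % DMSO as 100 and a positive kill control as 0. Breast cancer cell lines in 20 µl suspension had been seeded into 384-well plates with compound at 5 concentrations in 10-fold steps over a compound-specific 10,000-fold range, incubated 72 h, and read for CellTox Green fluorescence (485/520 nm) followed by CellTiter-Glo luminescence. Each value is the normalised signal at a single concentration.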

[8] = test system: DU-4475; assay: as above
How it was run: as §2

[9] = test system: BT-474; assay: as above
How it was run: as §2

[10] = test system: MFM-223; assay: as above
How it was run: as §2

[11] = test system: HCC1599; assay: as above
How it was run: as §2

[12] = test system: BT-549; assay: as above
How it was run: as §2

[13] = test system: CAL-51; assay: as above
How it was run: as §2

[14] = test system: MDA-MB-453; assay: as above
How it was run: as §2

[15] = test system: Hs578T; assay: as above
How it was run: as §2

[16] = test system: MDA-MB-436; assay: as above
How it was run: as §2

[17] = test system: MDA-MB-231; assay: as above
How it was run: as §2

[18] = test system: HCC1937; assay: as above
How it was run: as §2

[19] = test system: HCC1143; assay: as above
How it was run: as §2

[20] = test system: CAL-148; assay: as above
How it was run: as §2

[21] = test system: MCF-10A; assay: as above
How it was run: as §2

[22] = test system: CAL-85-1; assay: as above
How it was run: as §2

[23] = test system: MDA-MB-468; assay: as above
How it was run: as §2

[24] = test system: CAL-120; assay: as above
How it was run: as §2

[25] = test system: HDQ-P1; assay: normalised response (% of control), CellTiter-Glo; higher = more viable cells (100 = DMSO, 0 = benzethonium chloride kill control)
Protocol: (§3)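 DSRT, 72 h incubation, CellTox Green / CellTiter-Glo readout. Signal is normalised to DMSO and benzethonium chloride controls. Value is the normalised response at the highest dose.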

[26] = test system: DU-4475; assay: as above
Protocol: as §3

[27] = test system: BT-474; assay: as above
Protocol: as §3

[28] = test system: MFM-223; assay: as above
Protocol: as §3

[29] = test system: HCC1599; assay: as above
Protocol: as §3

[30] = test system: BT-549; assay: as above
Protocol: as §3

[31] = test system: CAL-51; assay: as above
Protocol: as §3

[32] = test system: MDA-MB-453; assay: as above
Protocol: as §3

[33] = test system: Hs578T; assay: as above
Protocol: as §3

[34] = test system: MDA-MB-436; assay: as above
Protocol: as §3

[35] = test system: MDA-MB-231; assay: as above
Protocol: as §3

[36] = test system: HCC1937; assay: as above
Protocol: as §3

[37] = test system: HCC1143; assay: as above
Protocol: as §3

[38] = test system: CAL-148; assay: as above
Protocol: as §3

[39] = test system: MCF-10A; assay: as above
Protocol: as §3

[40] = test system: CAL-85-1; assay: as above
Protocol: as §3

[41] = test system: SK-BR-3; assay: as above
Protocol: as §3

[42] = test system: MDA-MB-468; assay: as above
Protocol: as §3

[43] = test system: CAL-120; assay: as above
Protocol: as §3

## CN[C@@H]1C[C@H]2O[C@@](C)([C@@H]1OC)n1c3ccccc3c3c4c(c5c6ccccc6n2c5c31)C(=O)N[C@H]4O [UCN-01] (300 nM)
[1]
  normalised viability: 26.2%
[2]
  normalised viability: 37.6%
[3]
  normalised viability: 31.2%
[4]
  normalised viability: 38.4%
[5]
  normalised viability: 87%
[6]
  normalised viability: 41.8%

## NC(=O)Nc1cc(-c2cccc(F)c2)sc1C(=O)N[C@H]1CCCNC1 [AZD7762] (1000 nM)
[7]
  normalised response: 90.3%
[8]
  normalised response: 99.9%
[9]
  normalised response: 91.9%
[10]
  normalised response: 95.8%
[11]
  normalised response: 98%
[12]
  normalised response: 94.3%
[13]
  normalised response: 14.1%
[14]
  normalised response: 87%
[15]
  normalised response: 40.7%
[16]
  normalised response: 84.9%
[17]
  normalised response: 48.5%
[18]
  normalised response: 65.8%
[19]
  normalised response: 103%
[20]
  normalised response: 87.1%
[21]
  normalised response: 90.8%
[22]
  normalised response: -20.6%
[23]
  normalised response: 75.8%
[24]
  normalised response: 91.8%
[25]
  normalised response: 28%
[26]
  normalised response: 89.3%
[27]
  normalised response: 43%
[28]
  normalised response: 64.2%
[29]
  normalised response: 10.2%
[30]
  normalised response: 21.2%
[31]
  normalised response: 45.3%
[32]
  normalised response: 40.8%
[33]
  normalised response: 22.1%
[34]
  normalised response: 28.8%
[35]
  normalised response: 32%
[36]
  normalised response: 26.4%
[37]
  normalised response: 23.7%
[38]
  normalised response: 106%
[39]
  normalised response: 31.1%
[40]
  normalised response: 15.2%
[41]
  normalised response: 12%
[42]
  normalised response: 31.7%
[43]
  normalised response: 55.7%

## CCCCCCCCCCCCCCCCCCOP(=O)([O-])OC1CC[N+](C)(C)CC1 [Perifosine] (2500 nM)
[7]
  normalised response: 109%
[8]
  normalised response: 95.7%
[9]
  normalised response: 95.6%
[10]
  normalised response: 90.3%
[11]
  normalised response: 99.3%
[12]
  normalised response: 56.7%
[13]
  normalised response: 96.4%
[14]
  normalised response: 83.9%
[15]
  normalised response: 128%
[16]
  normalised response: 78%
[17]
  normalised response: 106%
[18]
  normalised response: 108%
[19]
  normalised response: 67%
[20]
  normalised response: 96.9%
[21]
  normalised response: 117%
[22]
  normalised response: 97.4%
[23]
  normalised response: 133%
[24]
  normalised response: 107%
[25]
  normalised response: 84.7%
[26]
  normalised response: 95.9%
[27]
  normalised response: 104%
[28]
  normalised response: 92.6%
[29]
  normalised response: 86.3%
[30]
  normalised response: 111%
[31]
  normalised response: 80.7%
[32]
  normalised response: 98.6%
[33]
  normalised response: 96.9%
[34]
  normalised response: 87.9%
[35]
  normalised response: 104%
[36]
  normalised response: 52.7%
[37]
  normalised response: 99.1%
[38]
  normalised response: 79.9%
[39]
  normalised response: 63.7%
[40]
  normalised response: 102%
[41]
  normalised response: 60.4%
[42]
  normalised response: 97.5%
[43]
  normalised response: 104%

## N#CCNC(=O)c1ccc(-c2ccnc(Nc3ccc(N4CCOCC4)cc3)n2)cc1 [Momelotinib] (10000 nM)
[7]
  normalised response: 100%
[8]
  normalised response: 95.5%
[9]
  normalised response: 101%
[10]
  normalised response: 97.5%
[11]
  normalised response: 90%
[12]
  normalised response: 31.3%
[13]
  normalised response: 85.1%
[14]
  normalised response: 70.6%
[15]
  normalised response: 87%
[16]
  normalised response: 78%
[17]
  normalised response: 19%
[18]
  normalised response: 102%
[19]
  normalised response: 98%
[20]
  normalised response: 100%
[21]
  normalised response: 90.5%
[22]
  normalised response: 54.6%
[23]
  normalised response: 22%
[24]
  normalised response: 97.4%
[25]
  normalised response: 87.1%
[26]
  normalised response: 64.8%
[27]
  normalised response: 55.8%
[28]
  normalised response: 67.2%
[29]
  normalised response: 96.8%
[30]
  normalised response: 23.5%
[31]
  normalised response: 58%
[32]
  normalised response: 104%
[33]
  normalised response: 41.4%
[34]
  normalised response: 71%
[35]
  normalised response: 46.8%
[36]
  normalised response: 84.5%
[37]
  normalised response: 66.6%
[38]
  normalised response: 97.3%
[39]
  normalised response: 43%
[40]
  normalised response: 43.7%
[41]
  normalised response: 55.1%
[42]
  normalised response: 22.2%
[43]
  normalised response: 50.2%
